Test results taken from PMC8765048 (JCI Insight, 2022).

Legend:
A549 (human lung) = test: CellTox Green Cytotoxicity Assay; details: ratio > 1 cytostatic, ≤ 1 cytotoxic
Salmonella typhimurium = test: AMES mutagenicity testing (Salmonella typhimurium reverse mutation assay); format: cell-based
Description: The standard AMES (Salmonella typhimurium reverse mutation assay, ref. [43]) was performed by Cyprotex to evaluate the mutagenic potentials of sangivamycin. Approximately 10 million bacteria were exposed in triplicate to sangivamycin (6 concentrations, 1 mg/mL high test concentration), a negative control (vehicle), and a positive control for 90 minutes in medium containing a low concentration of histidine (sufficient for about 2 doublings). The cultures were then diluted into indicator medium lacking histidine and dispensed into 48 wells of 384-well plates (microplate format). Plates were incubated for 48 hours at 37°C. In the microsuspension assay, cells that undergo a mutagenic reversion grow, resulting in a color change that is scored as positive wells. Wells with bacterial growth were counted and compared with those with vehicle control. A dose-dependent increase in the number of colonies of at least 2-fold over baseline (mean + SD of the vehicle control) indicated a positive response.

[1] = test system: SARS-CoV-2 B.1.351 (Beta); test: microbe, parasite or virus in culture; format: cell-based
SARS-CoV-2 WA1 = test: microbe, parasite or virus in culture; format: cell-based
SARS-CoV-2 [2] = test: microbe, parasite or virus in culture; format: cell-based
[3] = CellTiter-Glo cell viability assay; format: cell-based; details: Primary human hepatocytes
[4] = test system: SARS-CoV-2 B.1.427 (Epsilon); test: microbe, parasite or virus in culture; format: cell-based
[5] = test system: SARS-CoV-2 B.1.1.7 (Alpha); test: microbe, parasite or virus in culture; format: cell-based
[6] = CellTiter-Glo cell viability assay; format: cell-based; details: human, HEK293T cells
SARS-CoV-2 P.2 (Zeta) = test: microbe, parasite or virus in culture; format: cell-based
[7] = test system: SARS-CoV-2 B.1.617.2 (Delta); test: microbe, parasite or virus in culture; format: cell-based
[8] = mice, cited from earlier work
human cancer patients = details: 40 human cancer patients, cited from earlier work
A549 cells = test: Phospholipidosis imaging (NBD-PE fluorescence); details: 24 h, sangivamycin up to 5 μM, melperone 10 μM, amiodarone positive control
[9] = test system: HEK293T (human embryonic kidney); test: CellTox Green Cytotoxicity Assay; details: ratio > 1 cytostatic, ≤ 1 cytotoxic
SARS-CoV-2 [10] = test: Combinatorial sangivamycin/remdesivir efficacy testing, Calu-3 cells; format: cell-based; details: Severe acute respiratory syndrome coronavirus 2, Calu-3; read-out: IC50 (nM), S:R by [Sangivamycin]
[11] = test system: Ebola virus RNA-directed RNA polymerase (RdRp) activity; details: in vitro; cited from earlier work
[12] = test system: HepG2 (human hepatocarcinoma); test: CellTox Green Cytotoxicity Assay; details: ratio > 1 cytostatic, ≤ 1 cytotoxic
[13] = Severe acute respiratory syndrome coronavirus 2, Vero C1008, 18 h
[14] = Severe acute respiratory syndrome coronavirus 2, Calu-3, 72 h
[15] = Severe acute respiratory syndrome coronavirus 2, Calu-3, 24 h
[16] = Severe acute respiratory syndrome coronavirus 2, Vero C1008, 24 h

Structure (SMILES): NC(=O)c1cn([C@@H]2O[C@H](CO)[C@@H](O)[C@H]2O)c2ncnc(N)c12 [Sangivamycin, sangivamycin]
- Ratio CellTox Green/CellTiter-Glo (A549 (human lung)): >28.9
- AMES genotoxicity test (Salmonella typhimurium; 1 mg/mL [3.2 mM] high test concentration): >1 mg/mL
- bacterial mutagenicity (Salmonella typhimurium; up to 3.2 mM): no evidence of enhanced bacterial mutagenicity
- SI (selectivity index, CC50/IC50) ([1]; B.1.351 (Beta), Vero E6 cells): >10.5
- IC50 [1, 13]: 57.4 nM
- IC90 [1, 13]: 224 nM
- IC50 (SARS-CoV-2 WA1; [14]): 61 ± 8 nM
- IC90 (SARS-CoV-2 WA1; [14]): 190 ± 23 nM
- SI (selectivity index, CC50/IC50) (SARS-CoV-2 WA1; WA1, Calu-3 cells): 5.3
- SI calculated with the average CellTiter-Glo values (SARS-CoV-2 [2]): 13
- average in vitro IC50 from all cell types tested, as dose (SARS-CoV-2 [2]; 2-compartment model for a 70 kg adult, water volumes 42 L): 0.01 mg/kg
- IC50 (SARS-CoV-2 [2]; Severe acute respiratory syndrome coronavirus 2, n = 22, read-out: average IC50 for all viral testing in all cell lines and MOIs): 47 ± 5 nM
- SI calculated with the average CellTox Green (SARS-CoV-2 [2]; average CC50 / average IC50): > 106
- CC50 at 72 h [3]: 439 nM
- SI (selectivity index, CC50/IC50) ([4]; B.1.427 (Epsilon), Calu-3 cells): >7.3
- IC50 [4, 15]: 82.2 nM
- IC90 [4, 15]: 341 nM
- SI (selectivity index, CC50/IC50) ([5]; B.1.1.7 (Alpha), Vero E6 cells): >39.0
- IC50 [5, 16]: 15.4 nM
- IC90 [5, 16]: 164 nM
- CC50 at 72 h [6]: 885 nM
- SI (selectivity index, CC50/IC50) (SARS-CoV-2 P.2 (Zeta); P.2 (Zeta), Vero E6 cells): >20.1
- IC50 (SARS-CoV-2 P.2 (Zeta); [16]): 29.8 nM
- IC90 (SARS-CoV-2 P.2 (Zeta); [16]): 125 nM
- SI (selectivity index, CC50/IC50) ([7]; B.1.617.2 (Delta), Calu-3 cells): >7.6
- IC50 [7, 15]: 79 nM
- IC90 [7, 15]: 290 nM
- half-life in blood ([8]; 3H-labeled sangivamycin, i.p. 8 mg/kg): 50 h
- drug-derived radioactivity accounted for in the urine ([8]; over a period of 12 days): 40%
- MTD (human cancer patients; 0.1–2.83 mg/kg total dose): not reached
- tolerability (human cancer patients; daily, thrice weekly, or weekly dosing, 0.1–2.83 mg/kg total dose): well tolerated
- activity against the disease (cancer) (human cancer patients): inactive
- NBD-PE fluorescence (phospholipidosis) (A549 cells): no significant NBD-PE fluorescence above the DMSO control baseline
- Ratio CellTox Green/CellTiter-Glo [9]: >5.65
- IC50 (SARS-CoV-2 [10]): 69.6 nM
- effect of remdesivir and sangivamycin combined [11]: additive effect
- Ratio CellTox Green/CellTiter-Glo [12]: >2.82
